The record followed here is ChEMBL document CHEMBL5291721, “A preclinical secondary pharmacology resource illuminates target-adverse drug reaction associations of marketed drugs” (Nat Commun, 2023).

Some targets named below: D(3) dopamine receptor (Homo sapiens, UniProt P35462); Melanocortin receptor 3 (Homo sapiens, UniProt P41968); Vasopressin V1a receptor (Homo sapiens, UniProt P37288).
The target in another test is T1, Progesterone receptor (Homo sapiens, UniProt P06401).
T1 sequence (P06401 whole entry): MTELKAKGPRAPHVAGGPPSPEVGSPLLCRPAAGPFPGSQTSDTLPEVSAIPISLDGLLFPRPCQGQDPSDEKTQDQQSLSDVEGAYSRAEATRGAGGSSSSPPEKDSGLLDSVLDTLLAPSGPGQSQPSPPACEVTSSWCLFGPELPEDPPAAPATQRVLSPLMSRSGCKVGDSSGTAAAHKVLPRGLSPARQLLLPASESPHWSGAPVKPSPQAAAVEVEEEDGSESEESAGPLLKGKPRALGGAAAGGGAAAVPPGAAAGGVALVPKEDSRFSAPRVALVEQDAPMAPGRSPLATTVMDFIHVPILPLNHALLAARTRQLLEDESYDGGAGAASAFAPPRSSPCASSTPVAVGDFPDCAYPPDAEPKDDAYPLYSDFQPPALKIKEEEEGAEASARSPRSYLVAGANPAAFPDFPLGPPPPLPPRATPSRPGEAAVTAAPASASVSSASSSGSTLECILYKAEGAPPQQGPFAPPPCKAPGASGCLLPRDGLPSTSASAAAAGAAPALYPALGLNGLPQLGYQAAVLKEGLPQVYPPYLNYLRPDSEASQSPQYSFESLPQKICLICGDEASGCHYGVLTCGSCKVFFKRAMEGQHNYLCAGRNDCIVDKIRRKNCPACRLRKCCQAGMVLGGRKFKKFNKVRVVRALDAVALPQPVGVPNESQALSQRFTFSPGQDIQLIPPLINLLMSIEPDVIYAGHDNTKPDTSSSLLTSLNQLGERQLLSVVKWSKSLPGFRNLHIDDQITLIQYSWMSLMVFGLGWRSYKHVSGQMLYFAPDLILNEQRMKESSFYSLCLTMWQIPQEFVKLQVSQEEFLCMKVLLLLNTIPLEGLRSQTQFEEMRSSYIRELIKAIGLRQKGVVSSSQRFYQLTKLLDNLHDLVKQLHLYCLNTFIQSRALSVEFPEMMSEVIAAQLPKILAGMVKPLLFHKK
The test is classed as functional.

The target in test [1] is Growth hormone secretagogue receptor type 1 (Homo sapiens, UniProt Q92847).
Sequence of Growth hormone secretagogue receptor type 1 (Q92847 whole entry): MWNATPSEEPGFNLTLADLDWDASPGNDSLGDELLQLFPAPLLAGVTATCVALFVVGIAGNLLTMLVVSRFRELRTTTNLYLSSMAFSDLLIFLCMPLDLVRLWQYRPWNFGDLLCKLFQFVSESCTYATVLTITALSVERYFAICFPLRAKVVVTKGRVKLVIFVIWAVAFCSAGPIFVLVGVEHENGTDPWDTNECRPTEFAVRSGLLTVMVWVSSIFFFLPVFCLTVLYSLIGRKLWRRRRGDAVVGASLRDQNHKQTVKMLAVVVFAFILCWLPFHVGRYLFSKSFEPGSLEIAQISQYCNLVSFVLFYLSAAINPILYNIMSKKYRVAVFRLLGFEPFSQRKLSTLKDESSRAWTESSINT
The target of test [2] is T2, Type-1 angiotensin II receptor (Homo sapiens, UniProt P30556).
T2 sequence (P30556 whole entry): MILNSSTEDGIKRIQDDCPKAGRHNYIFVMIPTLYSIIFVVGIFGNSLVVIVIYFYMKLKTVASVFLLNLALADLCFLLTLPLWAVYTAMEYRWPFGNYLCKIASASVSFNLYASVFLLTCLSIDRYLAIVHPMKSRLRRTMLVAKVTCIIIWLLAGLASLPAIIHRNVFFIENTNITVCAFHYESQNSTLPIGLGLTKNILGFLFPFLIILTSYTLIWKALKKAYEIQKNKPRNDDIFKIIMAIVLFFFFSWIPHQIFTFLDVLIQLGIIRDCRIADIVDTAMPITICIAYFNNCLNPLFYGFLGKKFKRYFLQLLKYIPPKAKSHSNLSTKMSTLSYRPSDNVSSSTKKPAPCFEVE

Test [3] deals with T3, Gastrin/cholecystokinin type B receptor (Homo sapiens, UniProt P32239).
T3 sequence (P32239 whole entry): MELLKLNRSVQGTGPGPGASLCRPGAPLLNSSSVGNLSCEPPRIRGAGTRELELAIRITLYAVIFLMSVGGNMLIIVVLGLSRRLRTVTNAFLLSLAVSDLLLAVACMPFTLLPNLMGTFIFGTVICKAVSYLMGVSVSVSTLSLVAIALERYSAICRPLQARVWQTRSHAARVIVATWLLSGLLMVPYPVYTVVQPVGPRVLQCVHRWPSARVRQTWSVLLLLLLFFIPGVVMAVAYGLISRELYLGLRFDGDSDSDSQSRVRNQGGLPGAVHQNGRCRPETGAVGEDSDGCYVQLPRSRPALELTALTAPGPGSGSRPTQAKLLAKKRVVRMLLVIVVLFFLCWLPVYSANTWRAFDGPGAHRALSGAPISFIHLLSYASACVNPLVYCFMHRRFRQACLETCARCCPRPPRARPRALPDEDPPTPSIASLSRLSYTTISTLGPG

Test [4] addresses 5-hydroxytryptamine receptor 2B (Homo sapiens, UniProt P41595). It is filed as functional, cell-based.
In the next test the target is T4, Thromboxane A2 receptor (Homo sapiens, UniProt P21731).
T4 sequence (P21731 whole entry): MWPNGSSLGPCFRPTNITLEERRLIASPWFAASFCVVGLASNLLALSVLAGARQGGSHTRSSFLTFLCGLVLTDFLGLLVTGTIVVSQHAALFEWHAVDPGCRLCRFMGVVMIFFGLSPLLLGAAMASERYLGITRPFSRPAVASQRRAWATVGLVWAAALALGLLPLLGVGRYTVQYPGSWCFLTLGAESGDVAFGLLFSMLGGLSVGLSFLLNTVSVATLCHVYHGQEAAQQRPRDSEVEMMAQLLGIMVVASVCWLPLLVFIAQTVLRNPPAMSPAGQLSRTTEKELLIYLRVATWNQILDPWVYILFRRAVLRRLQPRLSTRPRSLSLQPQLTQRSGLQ

Another test deals with Cannabinoid receptor 1 (Homo sapiens, UniProt P21554). The test is classed as functional, cell-based.
Sequence of Cannabinoid receptor 1 (P21554 whole entry): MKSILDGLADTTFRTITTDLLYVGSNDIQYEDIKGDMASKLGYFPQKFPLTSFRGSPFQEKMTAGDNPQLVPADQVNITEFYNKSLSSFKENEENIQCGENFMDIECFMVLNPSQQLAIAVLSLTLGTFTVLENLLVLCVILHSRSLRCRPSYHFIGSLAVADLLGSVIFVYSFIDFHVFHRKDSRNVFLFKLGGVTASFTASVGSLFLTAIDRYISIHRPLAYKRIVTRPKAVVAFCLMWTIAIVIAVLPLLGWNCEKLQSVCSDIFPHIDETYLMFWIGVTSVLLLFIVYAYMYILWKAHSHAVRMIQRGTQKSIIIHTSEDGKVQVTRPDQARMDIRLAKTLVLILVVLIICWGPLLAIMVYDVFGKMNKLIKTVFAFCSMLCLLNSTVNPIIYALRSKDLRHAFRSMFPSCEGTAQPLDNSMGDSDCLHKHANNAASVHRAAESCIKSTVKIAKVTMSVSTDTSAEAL
In test [5] the target is Sodium-dependent noradrenaline transporter (Homo sapiens, UniProt P23975).
Sequence of Sodium-dependent noradrenaline transporter (P23975 whole entry): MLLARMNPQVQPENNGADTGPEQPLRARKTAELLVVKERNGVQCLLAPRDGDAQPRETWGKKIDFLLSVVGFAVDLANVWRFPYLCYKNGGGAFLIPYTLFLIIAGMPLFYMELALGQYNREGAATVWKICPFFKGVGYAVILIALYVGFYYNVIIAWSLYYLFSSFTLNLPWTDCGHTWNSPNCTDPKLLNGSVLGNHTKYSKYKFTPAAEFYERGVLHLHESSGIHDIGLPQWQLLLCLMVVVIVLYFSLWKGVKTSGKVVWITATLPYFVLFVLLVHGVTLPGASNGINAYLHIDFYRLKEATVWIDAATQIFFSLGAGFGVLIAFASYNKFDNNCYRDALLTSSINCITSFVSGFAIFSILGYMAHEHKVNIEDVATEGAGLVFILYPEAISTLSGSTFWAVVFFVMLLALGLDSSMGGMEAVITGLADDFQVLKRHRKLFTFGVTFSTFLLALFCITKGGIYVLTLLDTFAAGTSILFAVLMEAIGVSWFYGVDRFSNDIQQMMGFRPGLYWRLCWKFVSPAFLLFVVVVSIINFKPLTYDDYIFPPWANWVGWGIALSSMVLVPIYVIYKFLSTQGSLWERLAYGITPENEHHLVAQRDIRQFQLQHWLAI
Further: assay procedure not described here.

Sequence of Melanocortin receptor 3 (P41968 whole entry): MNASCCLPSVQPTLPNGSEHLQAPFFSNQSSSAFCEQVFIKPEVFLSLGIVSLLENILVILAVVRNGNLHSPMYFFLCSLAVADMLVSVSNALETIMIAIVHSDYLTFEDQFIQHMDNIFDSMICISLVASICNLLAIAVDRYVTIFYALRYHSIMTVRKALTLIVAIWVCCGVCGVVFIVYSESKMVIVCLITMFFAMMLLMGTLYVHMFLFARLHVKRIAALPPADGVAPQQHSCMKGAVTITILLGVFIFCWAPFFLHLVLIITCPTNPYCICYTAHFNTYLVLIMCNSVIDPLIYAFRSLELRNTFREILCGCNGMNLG
Sequence of D(3) dopamine receptor (P35462 whole entry): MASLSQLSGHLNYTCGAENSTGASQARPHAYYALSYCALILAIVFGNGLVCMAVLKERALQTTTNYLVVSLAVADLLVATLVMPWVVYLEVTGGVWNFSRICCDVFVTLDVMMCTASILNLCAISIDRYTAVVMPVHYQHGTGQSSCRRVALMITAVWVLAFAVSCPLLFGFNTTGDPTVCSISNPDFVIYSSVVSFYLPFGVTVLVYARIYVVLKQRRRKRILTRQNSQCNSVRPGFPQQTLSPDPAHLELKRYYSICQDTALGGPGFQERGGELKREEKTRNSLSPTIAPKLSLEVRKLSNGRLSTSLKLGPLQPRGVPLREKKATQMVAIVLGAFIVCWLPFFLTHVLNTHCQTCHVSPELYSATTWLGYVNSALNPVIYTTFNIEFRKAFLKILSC
Sequence of Vasopressin V1a receptor (P37288 whole entry): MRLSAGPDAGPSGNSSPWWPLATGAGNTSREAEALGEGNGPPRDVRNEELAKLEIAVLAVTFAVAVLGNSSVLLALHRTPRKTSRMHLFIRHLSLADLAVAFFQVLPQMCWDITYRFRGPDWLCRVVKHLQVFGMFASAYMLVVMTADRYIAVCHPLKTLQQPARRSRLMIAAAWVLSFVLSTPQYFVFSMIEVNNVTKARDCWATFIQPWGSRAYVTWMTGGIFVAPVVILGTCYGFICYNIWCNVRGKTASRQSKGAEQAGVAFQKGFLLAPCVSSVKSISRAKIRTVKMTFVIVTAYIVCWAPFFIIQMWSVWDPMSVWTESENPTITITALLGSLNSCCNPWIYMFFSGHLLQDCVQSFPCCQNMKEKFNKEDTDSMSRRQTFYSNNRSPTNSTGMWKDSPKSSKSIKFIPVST
Sequence of 5-hydroxytryptamine receptor 2B (P41595 whole entry): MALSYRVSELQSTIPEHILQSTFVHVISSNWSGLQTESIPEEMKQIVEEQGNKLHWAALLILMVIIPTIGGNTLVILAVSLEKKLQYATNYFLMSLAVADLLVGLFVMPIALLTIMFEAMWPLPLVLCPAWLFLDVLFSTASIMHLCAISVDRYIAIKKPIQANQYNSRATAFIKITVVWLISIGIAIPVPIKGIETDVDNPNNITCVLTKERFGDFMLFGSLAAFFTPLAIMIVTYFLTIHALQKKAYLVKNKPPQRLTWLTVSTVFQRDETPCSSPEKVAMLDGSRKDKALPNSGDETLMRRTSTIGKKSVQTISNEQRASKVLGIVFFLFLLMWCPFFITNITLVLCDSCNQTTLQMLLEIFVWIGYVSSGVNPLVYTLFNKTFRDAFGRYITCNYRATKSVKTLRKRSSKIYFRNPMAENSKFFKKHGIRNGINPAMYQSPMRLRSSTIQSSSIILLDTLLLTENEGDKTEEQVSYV

As to `COc1ccc2c(c1)c(CC(=O)OCC(=O)O)c(C)n2C(=O)c1ccc(Cl)cc1` [ACEMETACIN], the AC50 at Progesterone receptor was above 30 µM; in test [1], above 30 µM; in test [2] it was above 30 µM; in [3] it was above 10 µM; in test [4] it was above 30 µM; at Thromboxane A2 receptor, above 30 µM. In addition, the AC50 (on D(3) dopamine receptor; on Cannabinoid receptor 1; at Melanocortin receptor 3; in test [5]) was above 30 µM each time.
As for `CN1C(=O)COc2c(C(=O)NC3CN4CCC3CC4)cc(Cl)cc21` (centres undefined) [AZASETRON], the AC50 (at Progesterone receptor; in test [1]; in test [2]; in [3]; in test [4]; at Thromboxane A2 receptor) was above 30 µM throughout. The half-maximal activity concentration (AC50) (at D(3) dopamine receptor; at Vasopressin V1a receptor; at Cannabinoid receptor 1; at Melanocortin receptor 3; in [5]) was above 30 µM in each case.
As for `Cc1cc2c(OCC(CNC(C)(C)C)OC(=O)c3ccccc3)cccc2[nH]1` (centres undefined) [BOPINDOLOL], the AC50 on Progesterone receptor was above 30 µM; in [1], 16 µM; in [2] it was above 30 µM; in [3], above 30 µM; in test [4], 19 µM; at Thromboxane A2 receptor it was above 30 µM. In addition, the AC50 on D(3) dopamine receptor is above 30 µM; at Vasopressin V1a receptor, above 30 µM; at Cannabinoid receptor 1, above 30 µM; at Melanocortin receptor 3 it was above 30 µM; in test [5] it was 10.3 µM.
As to `CCCCN1CCCCC1C(=O)Nc1c(C)cccc1C` (centres undefined) [BUPIVACAINE], the AC50 (on Progesterone receptor; in test [1]; in [2]; in test [3]; in [4]; on Thromboxane A2 receptor) was above 30 µM throughout. Moreover, the AC50 at D(3) dopamine receptor, at Cannabinoid receptor 1 and on Melanocortin receptor 3 was above 30 µM in each case.
Regarding `CC(C)(Oc1ccc(C2CC2(Cl)Cl)cc1)C(=O)O` (centres undefined) [CIPROFIBRATE], the AC50 (at Progesterone receptor; in [1]; in test [2]; in test [3]; in test [4]; on Thromboxane A2 receptor) was above 30 µM throughout. Also, the AC50 (on D(3) dopamine receptor; on Cannabinoid receptor 1; at Melanocortin receptor 3; in test [5]) was above 30 µM in each case.
As to `[H]/N=C(/N)c1ccc(NCc2nc3cc(C(=O)N(CCC(=O)O)c4ccccn4)ccc3n2C)cc1` [DABIGATRAN], the AC50 (at Progesterone receptor; in test [1]; in test [2]; in test [3]; in test [4]; on D(3) dopamine receptor) was above 30 µM throughout. The AC50 (at Vasopressin V1a receptor; at Cannabinoid receptor 1; at Melanocortin receptor 3; in [5]) was above 30 µM throughout.
As for `Cc1c(O)c(=O)ccn1C` [DEFERIPRONE], the AC50 (on Progesterone receptor; in [1]; in test [2]; in [3]; in [4]; at Thromboxane A2 receptor) was above 30 µM in each case. Moreover, the AC50 (at D(3) dopamine receptor; at Cannabinoid receptor 1; at Melanocortin receptor 3; in test [5]) was above 30 µM throughout.
As for `Cc1cccc(C)c1NC(=O)C1CCCCN1C` (centres undefined) [MEPIVACAINE], the AC50 (at Progesterone receptor; in [1]; in test [2]; in [3]; in test [4]; on D(3) dopamine receptor) was above 30 µM in each case. Further, the concentration at half-maximal activity (AC50) (at Cannabinoid receptor 1; on Melanocortin receptor 3; in test [5]) was above 30 µM throughout.
With `C[C@]12CCC(=O)C=C1CC[C@@H]1[C@@H]2CC[C@@]2(C)[C@H]1CC[C@]2(C)O` [METHYLTESTOSTERONE], the AC50 is 0.2 µM on Progesterone receptor; above 30 µM in [1]; above 30 µM in test [2]; above 30 µM in test [3]; 22 µM in [4]; above 30 µM at Thromboxane A2 receptor. The AC50 (on D(3) dopamine receptor; at Cannabinoid receptor 1; on Melanocortin receptor 3; in [5]) was above 30 µM in each case.
As for `COc1c(C)c2c(c(O)c1C/C=C(\C)CCC(=O)OCCN1CCOCC1)C(=O)OC2` [MYCOPHENOLATE MOFETIL], the AC50 (at Progesterone receptor; in [1]; in test [2]; in [3]; in [4]; on Thromboxane A2 receptor) was above 30 µM each time. For the same compound, the AC50 (at D(3) dopamine receptor; at Cannabinoid receptor 1; on Melanocortin receptor 3; in test [5]) was above 30 µM throughout.
Consider `CCCOc1ccc(C(=O)OCCN(CC)CC)cc1N` [PROPARACAINE], for which the AC50 (at Progesterone receptor; in test [1]; in test [2]; in test [3]; in [4]; at D(3) dopamine receptor) was above 30 µM throughout. Also, the AC50 (on Cannabinoid receptor 1; at Melanocortin receptor 3; in test [5]) was above 30 µM throughout.
Turning to `Nc1nc2ccc(OC(F)(F)F)cc2s1` [RILUZOLE], the AC50 (on Progesterone receptor; in test [1]; in [2]; in test [3]; in [4]; at D(3) dopamine receptor) was above 30 µM throughout. The AC50 was above 30 µM at Vasopressin V1a receptor, above 30 µM on Cannabinoid receptor 1, above 30 µM on Melanocortin receptor 3 and 19 µM in [5].
On to `O=C1NCCN1CCN1CCC(c2cn(-c3ccc(F)cc3)c3ccc(Cl)cc23)CC1` [SERTINDOLE], for which the AC50 is above 30 µM on Progesterone receptor; 28 µM in test [1]; above 30 µM in test [2]; above 30 µM in [3]; 0.6 µM in [4]; above 30 µM on Thromboxane A2 receptor. Besides, the AC50 is above 30 µM at Vasopressin V1a receptor, above 30 µM at Cannabinoid receptor 1, 12 µM at Melanocortin receptor 3 and 2.7 µM in test [5].

One may read the AC50 as the concentration giving half of the maximal activity seen. A higher AC50 goes with activity only at high concentration.
